Paper PMC10269895 (Microbiology Spectrum, 2023)
≈ marks a conversion by molar mass, not a printed value. Like-named read-outs stand apart in the source and are kept apart here.

Columns and labels:
[1] = Solubility in phosphate buffer (pH 7.4); type: physicochemical
Experimental: (i) Solubility in phosphate buffer (pH 7.4). For calibration, approximately 2 mg of GE81112A was weighed into a HPLC glass vial. DMSO was added to reach a target concentration of 2 mg/mL. Dilutions for calibration (10 μg/mL, 50 μg/mL, and 100 μg/mL) were prepared by adding adjusted volumes of DMSO and were correlated with ultraperformance liquid chromatography (UPLC)-UV peak areas at 220 nm. For solubility determinations, 2 mg of GE81112A was weighed into a HPLC glass vial. Phosphate buffer (pH 7.4) was added to reach a target concentration of 2 mg/mL. The vial was shaken for 16 h at 25°C, with protection from light, on an Eppendorf thermomixer at 600 rpm, followed by centrifugation at 10,000 rpm for 5 min at 25°C and filtration through a 0.45-μm filter. The filtrated supernatant was analyzed (UPLC-UV, λ = 220 nm), and the concentration of the analyte in the filtrate was calculated based on the peak area/real concentration ratio from previous calibration runs.

HepG2 cells = assay: Cytotoxicity (CellTiter-Glo ATP and neutral red uptake); type: cell-based, human; conditions: 24 h; highest concentration with cell viability of >80%
Experimental: The toxicity of GE81112A toward human hepatocellular carcinoma HepG2 HB-8065 (ATCC) cells and freshly isolated primary Sprague-Dawley rat hepatocytes (Charles River) was assessed by using the CellTiter-Glo ATP-monitoring kit (Promega) and by quantifying the ability to store the dye neutral red (neutral red uptake [NRU] solution; Sigma-Aldrich, St. Louis, MO, USA). The assay was conducted in 96-well microtiter plates in a test volume of 200 μL. GE81112A was tested in an 8-fold 1:2 dilution series with a final concentration range of […]. HepG2 cells or primary hepatocytes were maintained at 37°C in 5% CO2 in DMEM-F-12 medium containing 1% nonessential amino acids, 1% sodium pyruvate, and 10% heat-inactivated FCS. Prior to each test, 100 μL of culture medium was added to each well (each containing about 20,000 cells), and the plates were incubated for 16 h as described above. GE81112A was diluted in culture medium to obtain appropriate concentrations and was added to the wells as six replicates. […] After incubation for 24 h as described above, cell viability was calculated either by cell lysis and subsequent luminometric quantification of the ATP concentration in each sample or by measurement of the amount of neutral red taken up by the cells. NRU was measured at 540 nm (Tecan Genios Pro) after 3 h of incubation with NRU solution and subsequent cell lysis. […]

[2] = Solubility in 0.9% NaCl solution; type: physicochemical; conditions: sodium chloride solution (0.9%)
Experimental: (ii) Solubility in 0.9% NaCl solution. To obtain a crystal-like form of the compound, GE81112A was dissolved in water followed by freeze-drying. Afterwards, 510 μg GE81112A was transferred to a glass vial with a microinsert, and 50 μL NaCl (0.9%) was added.

[3] = Chemical stability in the presence of GSH; type: physicochemical; conditions: incubation for 168 h
Experimental: Based on a stock solution of 0.2 mg GE81112A in 1,548 μL methanol, three different samples were prepared in triplets (test mixture: 100 μL stock solution, 2 μL DMSO, and 1 μL DMSO containing 1.5 GSH equivalents; reference sample A: 200 μL stock solution; reference sample B: 200 μL stock solution and 2 μL DMSO). All samples were measured at three different time points (0 h, 24 h, and 168 h) on a MaXis II system (Bruker).

E. cloacae CIP 105879 = tested on: E. cloacae CIP 105879
Experimental: (§1) MICs were determined by adapting the protocol from CLSI guidelines (Table 1; [15]). Briefly, from an overnight preculture, 49.2 μL of an inoculum of 5 × 10^5 CFU/mL in MH broth or DMEM was dispensed into 384-well plates, and 0.8 μL of compounds solubilized in dimethyl sulfoxide (DMSO) and serially diluted was added to the bacterial cultures. […] MICs were determined by measurement of the optical density at 600 nm (OD600). The experiments were performed in duplicate. Commercially available strains were obtained from the American Type Culture Collection (ATCC), the German Collection of Microorganisms and Cell Cultures (DSMZ), and the Biological Resource Center of Institut Pasteur (CRBIP).

E. coli MG1655 = tested on: E. coli MG1655
Experimental: as §1

C. freundii ATCC 8090 = tested on: C. freundii ATCC 8090
Experimental: as §1

[4] = tested on: K. pneumoniae ATCC BAA-2342; conditions: KPC strain
Experimental: as §1

P. stuartii ATCC 29851 = tested on: P. stuartii ATCC 29851
Experimental: as §1

E. cloacae ATCC BAA-2468 = conditions: NDM-1 strain
Experimental: as §1

[5] = tested on: K. pneumoniae ATCC BAA-2470; conditions: NDM-1 strain
Experimental: as §1

P. mirabilis DSM4479 = tested on: P. mirabilis DSM4479
Experimental: as §1

E. coli ATCC BAA-2469 = conditions: NDM-1 strain
Experimental: as §1

E. coli DSM 46345 = tested on: E. coli DSM 46345
Experimental: as §1

E. coli ATCC BAA-2471 = conditions: NDM-1 strain
Experimental: as §1

## NC(=O)OC[C@@H](O)C[C@H](NC(=O)[C@H]1NCCC[C@H]1O)C(=O)N[C@@H](Cc1c[nH]cn1)C(=O)N[C@H](C(=O)O)[C@H](O)c1cnc(Cl)[nH]1 [GE81112A]
[1]
  solubility at 16 h: > 500 µg/mL
HepG2 cells
  No observed effect concentration (NOEC): 15.6 µM
[2]
  solubility: > 500 µg/mL
[3]
  Stability in the presence of glutathione (GSH): no degradation or formation of adducts
E. cloacae CIP 105879; DMEM
  MIC: >64 µg/mL
E. cloacae CIP 105879; MHII
  MIC: >64 µg/mL
E. coli MG1655; DMEM
  MIC: 1 µg/mL (≈ 1.55 µM)
E. coli MG1655; MHII
  MIC: >64 µg/mL
C. freundii ATCC 8090; DMEM
  MIC: 32 µg/mL (≈ 49.7 µM)
C. freundii ATCC 8090; MHII
  MIC: >64 µg/mL
[4]; DMEM
  MIC: >64 µg/mL
[4]; MHII
  MIC: >64 µg/mL
P. stuartii ATCC 29851; DMEM
  MIC: >64 µg/mL
P. stuartii ATCC 29851; MHII
  MIC: >64 µg/mL
E. cloacae ATCC BAA-2468; DMEM
  MIC: >64 µg/mL
E. cloacae ATCC BAA-2468; MHII
  MIC: >64 µg/mL
[5]; DMEM
  MIC: >64 µg/mL
[5]; MHII
  MIC: >64 µg/mL
P. mirabilis DSM4479; DMEM
  MIC: 64 µg/mL (≈ 99.4 µM)
P. mirabilis DSM4479; MHII
  MIC: >64 µg/mL
E. coli ATCC BAA-2469; DMEM
  MIC: >64 µg/mL
E. coli ATCC BAA-2469; MHII
  MIC: >64 µg/mL
E. coli DSM 46345; DMEM
  MIC: >64 µg/mL
E. coli DSM 46345; MHII
  MIC: >64 µg/mL
E. coli ATCC BAA-2471; DMEM
  MIC: 4 µg/mL (≈ 6.21 µM)
E. coli ATCC BAA-2471; MHII
  MIC: >64 µg/mL
